Data: ChEMBL document CHEMBL4219047, “Optimization of peptide-based polyagonists for treatment of diabetes and obesity” (Bioorg Med Chem, 2018)

What was measured:
Type in all cases: functional, cell-based
Glucagon receptor [1] = target: T1, Glucagon receptor (Homo sapiens, UniProt P47871); experiment: Agonist activity at human GCG receptor expressed in HEK293 cells assessed as increase in cAMP level after 5 hrs by CRE driven luciferase reporter gene assay
[2] = target: T2, Gastric inhibitory polypeptide receptor (Homo sapiens) (UniProt P48546); experiment: Agonist activity at human GIP receptor expressed in HEK293 cells assessed as increase in cAMP level after 5 hrs by CRE driven luciferase reporter gene assay relative to GIP; parameters: concentration or dose not given beside the values
T2 sequence (whole entry): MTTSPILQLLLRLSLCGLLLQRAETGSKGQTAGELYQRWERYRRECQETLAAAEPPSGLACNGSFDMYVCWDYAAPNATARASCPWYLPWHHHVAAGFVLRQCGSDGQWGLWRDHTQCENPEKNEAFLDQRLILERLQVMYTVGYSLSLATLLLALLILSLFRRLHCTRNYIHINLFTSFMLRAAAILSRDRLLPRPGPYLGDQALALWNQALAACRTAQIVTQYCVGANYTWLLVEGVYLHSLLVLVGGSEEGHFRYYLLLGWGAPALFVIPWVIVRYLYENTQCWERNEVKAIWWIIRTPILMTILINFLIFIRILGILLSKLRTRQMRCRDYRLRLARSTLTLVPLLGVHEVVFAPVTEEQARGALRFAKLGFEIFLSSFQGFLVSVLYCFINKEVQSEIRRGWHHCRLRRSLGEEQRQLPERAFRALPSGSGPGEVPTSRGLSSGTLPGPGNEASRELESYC

[3] = target: T3, Glucagon-like peptide 1 receptor (Homo sapiens, UniProt P43220); experiment: Agonist activity at human GLP1 receptor expressed in HEK293 cells assessed as increase in cAMP level after 5 hrs by CRE driven luciferase reporter gene assay
[4] = target: T3, Glucagon-like peptide 1 receptor; experiment: Agonist activity at human GLP1 receptor expressed in HEK293 cells assessed as increase in cAMP level after 5 hrs by CRE driven luciferase reporter gene assay relative to GLP1; parameters: concentration or dose not given beside the values
[5] = target: T4, Gastric inhibitory polypeptide receptor (Homo sapiens, UniProt P48546); experiment: Agonist activity at human GIP receptor expressed in HEK293 cells assessed as increase in cAMP level after 5 hrs by CRE driven luciferase reporter gene assay
T4 sequence (P48546 whole entry): T2 sequence (whole entry)

Glucagon receptor [6] = target: T1, Glucagon receptor; experiment: Agonist activity at human GCG receptor expressed in HEK293 cells assessed as increase in cAMP level after 5 hrs by CRE driven luciferase reporter gene assay relative to glucagon

T1 sequence (P47871 whole entry): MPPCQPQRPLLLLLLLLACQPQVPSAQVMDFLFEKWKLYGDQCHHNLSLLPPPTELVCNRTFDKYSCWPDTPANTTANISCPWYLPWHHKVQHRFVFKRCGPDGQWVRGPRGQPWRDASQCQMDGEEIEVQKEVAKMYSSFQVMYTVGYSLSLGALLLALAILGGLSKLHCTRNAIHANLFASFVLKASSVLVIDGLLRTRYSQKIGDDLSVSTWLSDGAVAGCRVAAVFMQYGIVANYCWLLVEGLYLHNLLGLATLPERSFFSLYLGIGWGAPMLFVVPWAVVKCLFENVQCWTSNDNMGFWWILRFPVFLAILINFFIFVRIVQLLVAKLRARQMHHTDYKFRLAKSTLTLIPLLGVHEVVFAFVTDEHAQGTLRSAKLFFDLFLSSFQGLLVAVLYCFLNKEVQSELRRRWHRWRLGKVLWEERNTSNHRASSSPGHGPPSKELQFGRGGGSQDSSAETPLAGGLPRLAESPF
T3 sequence (P43220 whole entry): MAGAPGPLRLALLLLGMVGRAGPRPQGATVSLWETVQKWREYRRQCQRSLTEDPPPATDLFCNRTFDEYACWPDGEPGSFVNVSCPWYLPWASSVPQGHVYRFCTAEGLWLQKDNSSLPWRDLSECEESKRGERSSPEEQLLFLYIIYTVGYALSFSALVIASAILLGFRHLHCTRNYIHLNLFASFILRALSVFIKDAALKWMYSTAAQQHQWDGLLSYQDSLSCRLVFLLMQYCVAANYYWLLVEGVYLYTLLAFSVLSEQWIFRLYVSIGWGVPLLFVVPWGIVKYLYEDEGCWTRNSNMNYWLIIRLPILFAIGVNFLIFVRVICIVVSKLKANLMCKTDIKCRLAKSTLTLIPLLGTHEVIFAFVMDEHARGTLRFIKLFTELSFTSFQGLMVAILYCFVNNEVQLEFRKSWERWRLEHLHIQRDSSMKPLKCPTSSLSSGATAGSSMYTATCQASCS

Compound `CCCCCCCCCCCCCCCC(=O)N[C@@H](CCC(=O)NCCCC[C@H](NC(=O)[C@H](CC(=O)O)NC(=O)[C@H](CO)NC(=O)[C@@H](NC(=O)[C@H](Cc1ccccc1)NC(=O)[C@@H](NC(=O)CNC(=O)[C@H](CCC(N)=O)NC(=O)CNC(=O)[C@@H](N)Cc1cnc[nH]1)[C@@H](C)O)[C@@H](C)O)C(=O)N[C@@H](CO)C(=O)N[C@@H](CCCCN)C(=O)N[C@@H](Cc1ccc(O)cc1)C(=O)N[C@@H](CC(C)C)C(=O)N[C@@H](CC(=O)O)C(=O)N[C@@H](CCC(=O)O)C(=O)N[C@@H](CCCNC(=N)N)C(=O)N[C@@H](C)C(=O)N[C@@H](C)C(=O)N[C@@H](CCC(N)=O)C(=O)N[C@@H](CC(=O)O)C(=O)N[C@@H](Cc1ccccc1)C(=O)N[C@H](C(=O)N[C@@H](CCC(N)=O)C(=O)N[C@@H](Cc1c[nH]c2ccccc12)C(=O)N[C@@H](CC(C)C)C(=O)N[C@@H](CC(C)C)C(=O)N[C@@H](CC(=O)O)C(=O)N[C@H](C(N)=O)[C@@H](C)O)C(C)C)C(=O)O` has an EC50 (Glucagon receptor [1]) of 0.005 nM, an Activity [2] of 2% and an EC50 [3] of 0.093 nM. The Activity [4] was 30%, the EC50 [5] was 1.1 nM and the Activity (Glucagon receptor [6]) was 640%.

In the case of `CCCCCCCCCCCCCCCC(=O)N[C@@H](CCC(=O)NCCCC[C@H](NC(=O)[C@H](CC(=O)O)NC(=O)[C@H](CO)NC(=O)[C@@H](NC(=O)[C@H](Cc1ccccc1)NC(=O)[C@@H](NC(=O)CNC(=O)[C@H](CCC(N)=O)NC(=O)[C@@H](CO)NC(=O)[C@@H](N)Cc1cnc[nH]1)[C@@H](C)O)[C@@H](C)O)C(=O)N[C@@H](CO)C(=O)N[C@@H](CCCCN)C(=O)N[C@@H](Cc1ccc(O)cc1)C(=O)N[C@@H](CC(C)C)C(=O)N[C@@H](CC(=O)O)C(=O)N[C@@H](CCC(=O)O)C(=O)N[C@@H](CCCNC(=N)N)C(=O)N[C@@H](C)C(=O)N[C@@H](C)C(=O)N[C@@H](CCC(N)=O)C(=O)N[C@@H](CC(=O)O)C(=O)N[C@@H](Cc1ccccc1)C(=O)N[C@H](C(=O)N[C@@H](CCC(N)=O)C(=O)N[C@@H](Cc1c[nH]c2ccccc12)C(=O)N[C@@H](CC(C)C)C(=O)N[C@@H](CC(C)C)C(=O)N[C@@H](CC(=O)O)C(=O)NCC(=O)N[C@@H](CCCNC(=N)N)C(=O)NCC(N)=O)C(C)C)C(=O)O`, the Activity [2] is reported as 2%, the Activity [4] is reported as 1400% and the Activity (Glucagon receptor [6]) is reported as 800%.

Work on `CCCCCCCCCCCCCCCC(=O)N[C@@H](CCC(=O)NCCCC[C@H](NC(=O)[C@H](CC(=O)O)NC(=O)[C@H](CO)NC(=O)[C@@H](NC(=O)[C@H](Cc1ccccc1)NC(=O)[C@@H](NC(=O)CNC(=O)[C@H](CCC(N)=O)NC(=O)C(C)(C)NC(=O)[C@@H](N)Cc1cnc[nH]1)[C@@H](C)O)[C@@H](C)O)C(=O)N[C@@H](CO)C(=O)N[C@@H](CCCCN)C(=O)N[C@@H](Cc1ccc(O)cc1)C(=O)N[C@@H](CC(C)C)C(=O)N[C@@H](CC(=O)O)C(=O)N[C@@H](CCC(=O)O)C(=O)N[C@@H](CCC(N)=O)C(=O)N[C@@H](C)C(=O)N[C@@H](C)C(=O)N[C@@H](CCCCN)C(=O)N[C@@H](CCC(=O)O)C(=O)N[C@@H](Cc1ccccc1)C(=O)N[C@H](C(=O)N[C@@H](C)C(=O)N[C@@H](Cc1c[nH]c2ccccc12)C(=O)N[C@@H](CC(C)C)C(=O)N[C@@H](CC(C)C)C(=O)N[C@@H](CC(=O)O)C(=O)N[C@H](C(N)=O)[C@@H](C)O)[C@@H](C)CC)C(=O)O` yielded an EC50 (Glucagon receptor [1]) of 0.003 nM, an Activity [2] of 1% and an EC50 [3] of 0.003 nM. It also gave an Activity [4] of 933%, an EC50 [5] of 3.54 nM and an Activity (Glucagon receptor [6]) of 1070%.

`CCCCCCCCCCCCCCCC(=O)N[C@@H](CCC(=O)NCCCC[C@H](NC(=O)[C@H](CC(=O)O)NC(=O)[C@H](CO)NC(=O)[C@@H](NC(=O)[C@H](Cc1ccccc1)NC(=O)[C@@H](NC(=O)CNC(=O)[C@H](CCC(N)=O)NC(=O)C(C)(C)NC(=O)[C@@H](N)Cc1cnc[nH]1)[C@@H](C)O)[C@@H](C)O)C(=O)N[C@@H](CO)C(=O)N[C@@H](CCCCN)C(=O)N[C@@H](Cc1ccc(O)cc1)C(=O)N[C@@H](CC(C)C)C(=O)N[C@@H](CC(=O)O)C(=O)N[C@@H](CCC(=O)O)C(=O)N[C@@H](CCCNC(=N)N)C(=O)N[C@@H](C)C(=O)N[C@@H](C)C(=O)N[C@@H](CCC(N)=O)C(=O)N[C@@H](CC(=O)O)C(=O)N[C@@H](Cc1ccccc1)C(=O)N[C@H](C(=O)N[C@@H](CCC(N)=O)C(=O)N[C@@H](Cc1c[nH]c2ccccc12)C(=O)N[C@@H](CC(C)C)C(=O)N[C@@H](CC(C)C)C(=O)N[C@@H](CC(=O)O)C(=O)N[C@H](C(N)=O)[C@@H](C)O)C(C)C)C(=O)O` was tested, and the EC50 (Glucagon receptor [1]) was 0.005 nM, the Activity [2] was 1% and the EC50 [3] was 0.068 nM. It also gave an Activity [4] of 41%, an EC50 [5] of 2.03 nM and an Activity (Glucagon receptor [6]) of 640%.

`CCCCCCCCCCCCCCCC(=O)N[C@@H](CCC(=O)NCCCC[C@H](NC(=O)[C@H](CC(=O)O)NC(=O)[C@H](CO)NC(=O)[C@@H](NC(=O)[C@H](Cc1ccccc1)NC(=O)[C@@H](NC(=O)CNC(=O)[C@H](CCC(N)=O)NC(=O)CN(C)C(=O)[C@@H](N)Cc1cnc[nH]1)[C@@H](C)O)[C@@H](C)O)C(=O)N[C@@H](CO)C(=O)N[C@@H](CCCCN)C(=O)N[C@@H](Cc1ccc(O)cc1)C(=O)N[C@@H](CC(C)C)C(=O)N[C@@H](CC(=O)O)C(=O)N[C@@H](CCC(=O)O)C(=O)N[C@@H](CCCNC(=N)N)C(=O)N[C@@H](C)C(=O)N[C@@H](C)C(=O)N[C@@H](CCC(N)=O)C(=O)N[C@@H](CC(=O)O)C(=O)N[C@@H](Cc1ccccc1)C(=O)N[C@H](C(=O)N[C@@H](CCC(N)=O)C(=O)N[C@@H](Cc1c[nH]c2ccccc12)C(=O)N[C@@H](CC(C)C)C(=O)N[C@@H](CC(C)C)C(=O)N[C@@H](CC(=O)O)C(=O)N[C@H](C(N)=O)[C@@H](C)O)C(C)C)C(=O)O` was tested, and the EC50 (Glucagon receptor [1]) was 0.016 nM, the Activity [2] was 0% and the EC50 [3] was 0.115 nM. It also gave an Activity [4] of 24%, an EC50 [5] of 5.83 nM and an Activity (Glucagon receptor [6]) of 200%.

With `CC[C@H](C)[C@H](NC(=O)[C@H](Cc1ccccc1)NC(=O)[C@H](CCC(=O)O)NC(=O)[C@@H]1CCCCNC(=O)CC[C@H](NC(=O)[C@H](CC(=O)O)NC(=O)[C@H](CC(C)C)NC(=O)[C@H](Cc2ccc(O)cc2)NC(=O)[C@H](CCCCN)NC(=O)[C@H](CO)NC(=O)[C@H](Cc2ccc(O)cc2)NC(=O)[C@H](CC(=O)O)NC(=O)[C@H](CO)NC(=O)[C@@H](NC(=O)[C@H](Cc2ccccc2)NC(=O)[C@@H](NC(=O)CNC(=O)[C@H](CCC(N)=O)NC(=O)[C@H](CO)NC(=O)[C@@H](N)Cc2cnc[nH]2)[C@@H](C)O)[C@@H](C)O)C(=O)N[C@@H]([C@@H](C)CC)C(=O)N[C@@H](Cc2cnc[nH]2)C(=O)N[C@@H](CCC(N)=O)C(=O)N1)C(=O)N[C@@H](C)C(=O)N[C@@H](Cc1c[nH]c2ccccc12)C(=O)N[C@@H](CC(C)C)C(=O)N[C@@H](CCSC)C(=O)N[C@@H](CC(N)=O)C(=O)N[C@H](C(N)=O)[C@@H](C)O` the EC50 (Glucagon receptor [1]) was 0.15 nM, the Activity [2] was 0% and the EC50 [3] was 0.14 nM. For the same compound, the Activity [4] was 20%, the EC50 [5] was 5.53 nM and the Activity (Glucagon receptor [6]) was 21%.

With `CCCCCCCCCCCCCCCC(=O)N[C@@H](CCC(=O)NCCCC[C@H](NC(=O)[C@H](CC(=O)O)NC(=O)[C@H](CO)NC(=O)[C@@H](NC(=O)[C@H](Cc1ccccc1)NC(=O)[C@@H](NC(=O)CNC(=O)[C@H](CCC(N)=O)NC(=O)C(C)(C)NC(=O)[C@@H](N)Cc1cnc[nH]1)[C@@H](C)O)[C@@H](C)O)C(=O)N[C@@H](CO)C(=O)N[C@@H](CCCCN)C(=O)N[C@@H](Cc1ccc(O)cc1)C(=O)N[C@@H](CC(C)C)C(=O)N[C@@H](CC(=O)O)C(=O)N[C@@H](CCC(=O)O)C(=O)N[C@@H](CCCNC(=N)N)C(=O)N[C@@H](C)C(=O)N[C@@H](C)C(=O)N[C@@H](CCC(N)=O)C(=O)N[C@@H](CC(=O)O)C(=O)N[C@@H](Cc1ccccc1)C(=O)N[C@H](C(=O)N[C@@H](CCC(N)=O)C(=O)N[C@@H](Cc1c[nH]c2ccccc12)C(=O)N[C@@H](CC(C)C)C(=O)N[C@@H](CC(C)C)C(=O)N[C@@H](CC(=O)O)C(=O)NCC(=O)N[C@@H](CCCNC(=N)N)C(=O)NCC(N)=O)C(C)C)C(=O)O` the Activity [2] was 15%, the EC50 [3] was 0.004 nM and the Activity [4] was 700%. The EC50 [5] was 0.133 nM and the Activity (Glucagon receptor [6]) was 457%.

For `CCCCCCCCCCCCCCCC(=O)N[C@@H](CCC(=O)NCCCC[C@H](NC(=O)[C@H](CC(=O)O)NC(=O)[C@H](CO)NC(=O)[C@@H](NC(=O)[C@H](Cc1ccccc1)NC(=O)[C@@H](NC(=O)CNC(=O)[C@H](CCC(N)=O)NC(=O)[C@@H](C)NC(=O)[C@@H](N)Cc1cnc[nH]1)[C@@H](C)O)[C@@H](C)O)C(=O)N[C@@H](CO)C(=O)N[C@@H](CCCCN)C(=O)N[C@@H](Cc1ccc(O)cc1)C(=O)N[C@@H](CC(C)C)C(=O)N[C@@H](CC(=O)O)C(=O)N[C@@H](CCC(=O)O)C(=O)N[C@@H](CCCNC(=N)N)C(=O)N[C@@H](C)C(=O)N[C@@H](C)C(=O)N[C@@H](CCC(N)=O)C(=O)N[C@@H](CC(=O)O)C(=O)N[C@@H](Cc1ccccc1)C(=O)N[C@H](C(=O)N[C@@H](CCC(N)=O)C(=O)N[C@@H](Cc1c[nH]c2ccccc12)C(=O)N[C@@H](CC(C)C)C(=O)N[C@@H](CC(C)C)C(=O)N[C@@H](CC(=O)O)C(=O)N[C@H](C(N)=O)[C@@H](C)O)C(C)C)C(=O)O`, the EC50 (Glucagon receptor [1]) was 0.009 nM, the Activity [2] was 1% and the EC50 [3] was 0.04 nM. The Activity [4] was 70% and the Activity (Glucagon receptor [6]) was 356%.
